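Cultured in 96-well plates, cells were exposed to test compound for 48 hours across five concentrations. At the GI50, growth is halved.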 Calls of active or inactive are those of the source. No stated cut-off is given here; in the data, active = GI50 up to about 1.1 µM and inactive = higher.
How the values were obtained:
Assay in all cases: NCI-60 cell line screen, 48 h
[1] = test system: SF-268
[2] = test system: NCI/ADR-RES
[3] = test system: K562
[4] = test system: HCC 2998
[5] = test system: A549
[6] = test system: NCI-H460
[7] = test system: M19-MEL
[8] = test system: SK-MEL-28
[9] = test system: RXF 393
[10] = test system: COLO 205
[11] = test system: OVCAR-5
[12] = test system: HL-60
[13] = test system: IGROV-1
[14] = test system: DLD-1
[15] = test system: U-251
[16] = test system: SNB-78
[17] = test system: HCT-116
[18] = test system: SN12C
[19] = test system: UO-31
[20] = test system: MOLT-4
[21] = test system: SW-620
[22] = test system: HOP-92
[23] = test system: SF-295
[24] = test system: MCF7
[25] = test system: SK-MEL-2
[26] = test system: KM12
[27] = test system: A498
[28] = test system: SK-MEL-5
[29] = test system: SNB-75
[30] = test system: SNB-19
[31] = test system: OVCAR-4
[32] = test system: UACC-62
[33] = test system: LOX IMVI
[34] = test system: NCI-H226
[35] = test system: OVCAR-3
[36] = test system: NCI-H23
[37] = test system: DMS-273
[38] = test system: KM-20L2
[39] = test system: OVCAR-8
[40] = test system: HOP-18
[41] = test system: XF498
[42] = test system: RPMI-8226
[43] = test system: CCRF-CEM
[44] = test system: SK-OV-3
[45] = test system: NCI-H522
[46] = test system: CAKI-1
[47] = test system: HOP-62
[48] = test system: DMS-114
[49] = test system: UACC-257
[50] = test system: SF-539
[51] = test system: EKVX
[52] = test system: HT-29
[53] = test system: HCT-15

Measured: GI50

O=C1C2=C(C3=NCCc4c[nH]c1c43)c1c(Br)cc(Br)cc1CCN2
2210 nM: [53]
inactive: [1] 2590 nM | [2] 4710 nM | [3] 2680 nM | [4] 2010 nM | [5] 2730 nM | [6] 3030 nM | [8] 8490 nM | [9] 4750 nM | [10] 1290 nM | [11] 4190 nM | [12] 1620 nM | [13] 4060 nM | [14] 1790 nM | [15] 3660 nM | [16] 5550 nM | [17] 1840 nM | [18] 2280 nM | [19] 6220 nM | [20] 1350 nM | [21] 2240 nM | [22] 9180 nM | [23] 2420 nM | [24] 1800 nM | [25] 3330 nM | [26] 2560 nM | [27] 11200 nM | [28] 1620 nM | [29] 8930 nM | [30] 11200 nM | [31] 2220 nM | [32] 1140 nM | [33] 1230 nM | [34] 4410 nM | [35] 2770 nM | [36] 1790 nM | [37] 3120 nM | [38] 2750 nM | [39] 2980 nM | [40] 3150 nM | [41] 10700 nM | [42] 1240 nM | [43] 2580 nM | [44] 12200 nM | [45] 1660 nM | [46] 13400 nM | [47] 14600 nM | [48] 2020 nM | [49] 1500 nM | [50] 3420 nM | [51] 3010 nM | [52] 2450 nM
active: [7] 661 nM

Reference: ChEMBL document CHEMBL1201862, “PubChem BioAssay data set” (2004)
